Measured values taken from PubChem BioAssay (NCI).
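Results reflect a 48-hour exposure of cells in 96-well plates to compound at five concentrations. TGI marks complete inhibition of growth.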

What was measured:
Test in all cases: NCI-60 cell line screen, 48 h
[1] = test system: SF-268 CNS
[2] = test system: MCF7 breast
[3] = test system: SF-295 CNS
[4] = test system: M14 melanoma
[5] = test system: T-47D breast
[6] = test system: MDA-MB-231 breast
[7] = test system: SK-MEL-28 melanoma
[8] = test system: KM12 colon
[9] = test system: A549 NSCLC
[10] = test system: OVCAR-3 ovarian
[11] = test system: CAKI-1 renal
[12] = test system: LOX IMVI melanoma
[13] = test system: EKVX NSCLC
[14] = test system: COLO 205 colon
[15] = test system: HS 578T breast
[16] = test system: SN12C renal
[17] = test system: HCC-2998 colon
[18] = test system: NCI/ADR-RES ovarian
[19] = test system: NCI-H460 lung
[20] = test system: OVCAR-4 ovarian
[21] = test system: OVCAR-8 ovarian
[22] = test system: MOLT-4 leukemia
[23] = test system: SNB-19 CNS
[24] = test system: 786-0 renal
[25] = test system: IGROV1 ovarian
[26] = test system: A498 renal
[27] = test system: HOP-62 NSCLC
[28] = test system: UO-31 renal
[29] = test system: RPMI-8226 leukemia
[30] = test system: MDA-MB-435
[31] = test system: UACC-257 melanoma
[32] = test system: SK-MEL-5 melanoma
[33] = test system: HL-60(TB) leukemia
[34] = test system: ACHN renal
[35] = test system: SF-539 CNS
[36] = test system: NCI-H522 lung
[37] = test system: HCT-15 colon
[38] = test system: BT-549 breast
[39] = test system: DU-145 prostate
[40] = test system: PC-3 prostate
[41] = test system: SW-620 colon
[42] = test system: RXF 393 renal
[43] = test system: MDA-N
[44] = test system: TK-10 renal
[45] = test system: HOP-92 NSCLC
[46] = test system: CCRF-CEM leukemia
[47] = test system: MALME-3M melanoma
[48] = test system: NCI-H226 lung
[49] = test system: SK-OV-3 ovarian
[50] = test system: NCI-H23 lung
[51] = test system: OVCAR-5 ovarian
[52] = test system: HT29 colon
[53] = test system: U251 CNS
[54] = test system: SK-MEL-2 melanoma
[55] = test system: UACC-62 melanoma
[56] = test system: K-562 leukemia
[57] = test system: HCT-116 colon
[58] = test system: SNB-75 CNS

For `CN(C)c1ccc(N=Nc2ccccn2)cc1`, the TGI [1] was over 100 µM, the TGI [2] was 14.6 µM and the TGI [3] was over 100 µM. It also gave a TGI [4] of over 100 µM, a TGI [5] of over 100 µM and a TGI [6] of over 100 µM. It also gave a TGI [7] of over 100 µM, a TGI [8] of over 100 µM and a TGI [9] of over 100 µM. It also gave a TGI [10] of over 100 µM, a TGI [11] of over 100 µM and a TGI [12] of over 100 µM. For the same molecule, the TGI [13] was over 100 µM, the TGI [14] was 21.8 µM and the TGI [15] was over 100 µM. The TGI [16] was over 100 µM, the TGI [17] was 59.7 µM and the TGI [18] was 66.1 µM. The TGI [19] was over 100 µM, the TGI [20] was over 100 µM and the TGI [21] was over 100 µM. For the same molecule, the TGI [22] was 40.9 µM, the TGI [23] was over 100 µM and the TGI [24] was over 100 µM. It also gave a TGI [25] of over 100 µM, a TGI [26] of 94.7 µM and a TGI [27] of over 100 µM. It also gave a TGI [28] of 79.8 µM, a TGI [29] of over 100 µM and a TGI [30] of over 100 µM. For the same molecule, the TGI [31] was 25.7 µM, the TGI [32] was over 100 µM and the TGI [33] was 52.3 µM. For the same molecule, the TGI [34] was over 100 µM, the TGI [35] was over 100 µM and the TGI [36] was over 100 µM. For the same molecule, the TGI [37] was over 100 µM, the TGI [38] was over 100 µM and the TGI [39] was over 100 µM. It also gave a TGI [40] of 81.9 µM, a TGI [41] of over 100 µM and a TGI [42] of over 100 µM. The TGI [43] was over 100 µM, the TGI [44] was over 100 µM and the TGI [45] was over 100 µM. The TGI [46] was 91.2 µM, the TGI [47] was over 100 µM and the TGI [48] was over 100 µM. The TGI [49] was over 100 µM, the TGI [50] was 83.2 µM and the TGI [51] was over 100 µM. The TGI [52] was over 100 µM, the TGI [53] was 33 µM and the TGI [54] was over 100 µM. For the same molecule, the TGI [55] was over 100 µM, the TGI [56] was over 100 µM and the TGI [57] was over 100 µM. For the same molecule, the TGI [58] was over 100 µM.
